Source: patent US20110105326A1, “Method for Enhancing the Rainfastness of Glyphosate” (BASF SE, priority 2008, published 2011)

Key:
Type in all cases: in vivo
[1] = tested on: Echinochloa colonum (ECHCO); assay: herbicidal action with/without simulated rainfall after treatment, Echinochloa colonum; conditions: Example 7, carfentrazone 30 g/ha, glyphosate 1080 g/ha, 0.5% v/v Dash in Carfentrazone and mixture
Protocol: (§1) The enhancement of the rainfastness of glyphosate was determined via the herbicidal activity of the mixture comprising glyphosate and the respective rainfastness enhancing herbicidal component B as well as of the single herbicidal components in relation to simulated rainfall at different time intervals.
(§2) The evaluation of the damage caused by the method and the compositions the according to the present invention and the single herbicidal components was carried out using a scale from 0 to 100%, compared to the untreated control plots. Here, 0 means no damage and 100 means complete destruction of the plants of a respective weed or crop species.
(§3) The application was performed with a fixed spayer system with air pressurization and with a tank spray volume of two liters. The speed of the spray device over the plants was adjusted for a spray volume of 200 I/ha. The spray device was a spray barr with four nozzles from the type Teejet XR 11002VS with a space of 50 cm between each nozzle.
(§4) The application was performed at a weed stage of 6 to 8 leaves. After the application of the formulated herbicides the leaves were washed through rain of 20 mm using a fixed rain simulator system at following time interval: 15 min, 30 min, 1, 2, 3, 4 and 6 hours after treatment.

Bidens pilosa (BIDPI) = assay: herbicidal action with/without simulated rainfall after treatment, Bidens pilosa; conditions: Example 6, carfentrazone 30 g/ha, glyphosate 1080 g/ha, 0.5% v/v Dash in Carfentrazone and mixture
Protocol: as §1, §2, §3, §4

[2] = tested on: Brachiaria decumbens (BRADE); assay: herbicidal action with/without simulated rainfall after treatment, Brachiaria decumbens; conditions: Example 8, carfentrazone 30 g/ha, glyphosate 1080 g/ha, 0.5% v/v Dash in Carfentrazone and mixture
Protocol: as §1, §2, §3, §4

[3] = simulated rainfall 15 min after treatment, 1 DAA
[4] = simulated rainfall 15 min after treatment, 2 DAA
[5] = simulated rainfall 15 min after treatment, 3 DAA
[6] = simulated rainfall 15 min after treatment, 7 DAA
[7] = simulated rainfall 2 hours after treatment, 1 DAA
[8] = simulated rainfall 2 hours after treatment, 2 DAA
[9] = simulated rainfall 2 hours after treatment, 3 DAA
[10] = simulated rainfall 2 hours after treatment, 7 DAA
[11] = without simulated rainfall, 1 DAA
[12] = without simulated rainfall, 2 DAA
[13] = without simulated rainfall, 3 DAA
[14] = without simulated rainfall, 7 DAA
[15] = simulated rainfall 30 min after treatment, 1 DAA
[16] = simulated rainfall 30 min after treatment, 2 DAA
[17] = simulated rainfall 30 min after treatment, 3 DAA
[18] = simulated rainfall 6 hours after treatment, 1 DAA
[19] = simulated rainfall 6 hours after treatment, 2 DAA
[20] = simulated rainfall 6 hours after treatment, 3 DAA

## Cc1nn(-c2cc(CC(Cl)C(=O)O)c(Cl)cc2F)c(=O)n1C(F)F (centres unmarked) [Carfentrazone, carfentrazone]
[1]; [3]
  herbicidal action against ECHCO: 9%
[1]; [4]
  herbicidal action against ECHCO: 33.33%
[1]; [5]
  herbicidal action against ECHCO: 36%
[1]; [6]
  herbicidal action against ECHCO: 56%
[1]; [7]
  herbicidal action against ECHCO: 14%
[1]; [8]
  herbicidal action against ECHCO: 32.22%
[1]; [9]
  herbicidal action against ECHCO: 37.66%
[1]; [10]
  herbicidal action against ECHCO: 50.33%
[1]; [11]
  herbicidal action against ECHCO: 14.66%
[1]; [12]
  herbicidal action against ECHCO: 54.66%
[1]; [13]
  herbicidal action against ECHCO: 76.66%
[1]; [14]
  herbicidal action against ECHCO: 76%
Bidens pilosa (BIDPI); [3]
  herbicidal action against BIDPI: 51%
Bidens pilosa (BIDPI); [4]
  herbicidal action against BIDPI: 54.66%
Bidens pilosa (BIDPI); [5]
  herbicidal action against BIDPI: 53.33%
Bidens pilosa (BIDPI); [15]
  herbicidal action against BIDPI: 68.66%
Bidens pilosa (BIDPI); [16]
  herbicidal action against BIDPI: 87.66%
Bidens pilosa (BIDPI); [17]
  herbicidal action against BIDPI: 94.66%
Bidens pilosa (BIDPI); [7]
  herbicidal action against BIDPI: 69.33%
Bidens pilosa (BIDPI); [8]
  herbicidal action against BIDPI: 89%
Bidens pilosa (BIDPI); [9]
  herbicidal action against BIDPI: 92.33%
Bidens pilosa (BIDPI); [18]
  herbicidal action against BIDPI: 56%
Bidens pilosa (BIDPI); [19]
  herbicidal action against BIDPI: 86.66%
Bidens pilosa (BIDPI); [20]
  herbicidal action against BIDPI: 92.33%
Bidens pilosa (BIDPI); [11]
  herbicidal action against BIDPI: 69.66%
Bidens pilosa (BIDPI); [12]
  herbicidal action against BIDPI: 94.33%
Bidens pilosa (BIDPI); [13]
  herbicidal action against BIDPI: 99%
[2]; [3]
  herbicidal action against BRADE: 4%
[2]; [4]
  herbicidal action against BRADE: 10.33%
[2]; [5]
  herbicidal action against BRADE: 11.66%
[2]; [6]
  herbicidal action against BRADE: 17.33%
[2]; [15]
  herbicidal action against BRADE: 10.66%
[2]; [16]
  herbicidal action against BRADE: 19.66%
[2]; [17]
  herbicidal action against BRADE: 11.66%
[2]; simulated rainfall 30 min after treatment, 7 DAA
  herbicidal action against BRADE: 18.66%
[2]; [7]
  herbicidal action against BRADE: 15%
[2]; [8]
  herbicidal action against BRADE: 14.33%
[2]; [9]
  herbicidal action against BRADE: 13%
[2]; [10]
  herbicidal action against BRADE: 16.66%
[2]; [18]
  herbicidal action against BRADE: 25%
[2]; [19]
  herbicidal action against BRADE: 29%
[2]; [20]
  herbicidal action against BRADE: 27.66%
[2]; simulated rainfall 6 hours after treatment, 7 DAA
  herbicidal action against BRADE: 26%
[2]; [11]
  herbicidal action against BRADE: 3.66%
[2]; [12]
  herbicidal action against BRADE: 18.33%
[2]; [13]
  herbicidal action against BRADE: 24.33%
[2]; [14]
  herbicidal action against BRADE: 40.33%
